Test systems include NCI-H522; DMS-114; NCI-H226; SNB-75; KM12; CCRF-CEM; MOLT-4; HT-29; LXFL 529; K562; HCT-15; OVCAR-5; NCI-H23; 786-0; SK-OV-3; EKVX; SK-MEL-28; COLO 205.
What all share (test): DTP human tumour cell line panel, 48 h

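Interpolation was linear, between the two tested concentrations surrounding the appropriate level; five concentrations were tested over 48 hours in 96-well plates. GI50: concentration for 50% inhibition of growth.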 Active and inactive are the calls of the source. No stated cut-off is given here; in the data, active = GI50 up to about 1.1 µM and inactive = higher.

For orientation: GI50 means the concentration at which growth is held to half of that of the control. Take `CC(C)c1cccc(=O)c(O)c1`: the GI50 was 1.39 µM (inactive) in the assay on NCI-H522; 2.24 µM (inactive) in the assay with DMS-114; 6.32 µM (inactive) in the assay on NCI-H226; 6.18 µM (inactive) with SNB-75; 8.34 µM (inactive) in the assay on KM12; 0.845 µM (active) in the assay on CCRF-CEM. Besides, the GI50 is 1.02 µM (active) in the assay on MOLT-4; 3.07 µM (inactive) in the assay on HT-29; 1.47 µM (inactive) with LXFL 529; 2.21 µM (inactive) in the assay with K562; 1.54 µM in the assay on HCT-15; 9.73 µM (inactive) in the assay on OVCAR-5. Moreover, the GI50 in the assay with NCI-H23 is 2.53 µM (inactive); in the assay with 786-0 it was 3.4 µM (inactive); with SK-OV-3, 15.8 µM (inactive); in the assay with EKVX it was 5.78 µM (inactive); in the assay on SK-MEL-28, 1.5 µM (inactive); in the assay on COLO 205, 1.37 µM (inactive).

As for `Cn1cccc1/C=C/c1cc(Br)c(/C=C/c2cccn2C)cc1Br`, the GI50 is 14.5 µM (inactive) in the assay on NCI-H522; 11.6 µM (inactive) in the assay on DMS-114; 12.3 µM (inactive) in the assay with NCI-H226; 3.13 µM (inactive) with SNB-75; 7.23 µM (inactive) in the assay with KM12; 15.2 µM (inactive) in the assay with CCRF-CEM. Besides, the GI50 with MOLT-4 is 11.6 µM (inactive); in the assay with HT-29, 18.6 µM (inactive); with LXFL 529, 12.3 µM (inactive); with K562, 16.7 µM (inactive); in the assay with HCT-15, 8.75 µM; with OVCAR-5, 16.8 µM (inactive). Further, the GI50 was > 10 µM (inactive) in the assay with NCI-H23; 6.12 µM (inactive) with 786-0; 14.8 µM (inactive) with SK-OV-3; 11.1 µM (inactive) in the assay on EKVX; 15.5 µM (inactive) with SK-MEL-28; 13.2 µM (inactive) in the assay on COLO 205.

For `N#CCc1c(-c2ccccc2)n(S(=O)(=O)c2ccccc2)c2ccccc12`, the GI50 with NCI-H522 is > 10 µM (inactive); in the assay with DMS-114 it was 64.9 µM (inactive); in the assay on NCI-H226, > 100 µM (inactive); in the assay on SNB-75, 6.78 µM (inactive); with KM12, > 100 µM (inactive); with CCRF-CEM it was > 100 µM (inactive). Moreover, the GI50 in the assay on MOLT-4 was 41.3 µM (inactive); in the assay on HT-29 it was > 100 µM (inactive); with LXFL 529, > 100 µM (inactive); in the assay on K562, 46.9 µM (inactive); in the assay with HCT-15 it was 82.8 µM; with OVCAR-5, > 100 µM (inactive). Moreover, the GI50 is 33.7 µM (inactive) in the assay with NCI-H23, > 100 µM (inactive) with 786-0, > 100 µM (inactive) with SK-MEL-28 and > 100 µM (inactive) with COLO 205.

As to `NNC(=S)N/N=C/C(Cl)=C(\Cl)C(=O)O`, the GI50 was 0.228 µM (active) in the assay with NCI-H522; > 100 µM (inactive) in the assay with DMS-114; > 100 µM (inactive) in the assay with NCI-H226; > 100 µM (inactive) in the assay with SNB-75; > 100 µM (inactive) with CCRF-CEM; > 100 µM (inactive) in the assay on MOLT-4. Besides, the GI50 in the assay with HT-29 is > 100 µM (inactive); with LXFL 529, > 100 µM (inactive); in the assay on K562 it was > 100 µM (inactive); in the assay with HCT-15 it was more than 100 µM; in the assay on OVCAR-5 it was > 100 µM (inactive); with NCI-H23 it was > 100 µM (inactive). Moreover, the GI50 with 786-0, in the assay on EKVX and in the assay with SK-MEL-28 was > 100 µM (inactive) throughout.

For the compound `C/C(CC(=O)Nc1ccc(C)cc1)=N\NC(N)=S`, the GI50 with NCI-H522 is 94 µM (inactive); in the assay with DMS-114, > 100 µM (inactive); in the assay on NCI-H226, > 100 µM (inactive); in the assay with SNB-75 it was > 100 µM (inactive); in the assay on KM12, 77.4 µM (inactive); with CCRF-CEM, > 100 µM (inactive). Further, the GI50 in the assay on MOLT-4 is > 100 µM (inactive); in the assay with HT-29, > 100 µM (inactive); in the assay on LXFL 529, 72.3 µM (inactive); in the assay with K562, 64.4 µM (inactive); in the assay on OVCAR-5 it was > 100 µM (inactive); with NCI-H23, > 100 µM (inactive). Further, the GI50 with 786-0, with SK-OV-3, with EKVX, in the assay with SK-MEL-28 and with COLO 205 was > 100 µM (inactive) each time.

As to `COC1C=CC(C(=O)[N+]2=Cc3[nH]c4ccccc4c3CC2)O1` (centres undefined), the GI50 is 34.9 µM (inactive) with NCI-H522; 66.4 µM (inactive) with DMS-114; 80.9 µM (inactive) with NCI-H226; 75.3 µM (inactive) with SNB-75; > 100 µM (inactive) in the assay on KM12; 27.6 µM (inactive) with CCRF-CEM. In addition, the GI50 in the assay on MOLT-4 was 34.9 µM (inactive); in the assay on HT-29 it was > 100 µM (inactive); in the assay on LXFL 529 it was 98.2 µM (inactive); in the assay on K562, 37.2 µM (inactive); in the assay on HCT-15, 78.5 µM; with OVCAR-5, > 100 µM (inactive). The GI50 in the assay with NCI-H23 was > 100 µM (inactive); with 786-0 it was > 100 µM (inactive); in the assay with SK-OV-3, 52.5 µM (inactive); in the assay with EKVX it was 88.5 µM (inactive); with SK-MEL-28, > 100 µM (inactive); in the assay on COLO 205, > 100 µM (inactive).

`CCN1C(=O)N(C)C(O)c2c1nc1ccccn1c2=O` (centres undefined): the GI50 is 25.3 µM (inactive) with NCI-H522; 7.4 µM (inactive) in the assay on DMS-114; 60.7 µM (inactive) in the assay on NCI-H226; 20.6 µM (inactive) in the assay on SNB-75; 36.5 µM (inactive) in the assay on KM12; 27.8 µM (inactive) in the assay on CCRF-CEM. Also, the GI50 in the assay with MOLT-4 was 32.1 µM (inactive); with HT-29, 27.6 µM (inactive); with LXFL 529, 29 µM (inactive); with K562, 34 µM (inactive); in the assay with HCT-15 it was 32.2 µM; with NCI-H23, 24.9 µM (inactive). For the same compound, the GI50 was 28.5 µM (inactive) with 786-0; 26.1 µM (inactive) in the assay on SK-OV-3; 21.2 µM (inactive) in the assay with EKVX; 27.4 µM (inactive) with SK-MEL-28; 21.2 µM (inactive) in the assay on COLO 205.

For the compound `Cc1[nH]c2ccccc2c1C1Cc2ccccc2N1C(=O)/C=C\C(=O)O` (centres undefined), the GI50 with NCI-H522 is 27.6 µM (inactive); with DMS-114, 33.4 µM (inactive); in the assay with NCI-H226 it was 27.9 µM (inactive); in the assay with SNB-75 it was 24.3 µM (inactive); with KM12 it was 32.6 µM (inactive); with CCRF-CEM, 31 µM (inactive). The GI50 is 28.4 µM (inactive) in the assay on MOLT-4; 66.1 µM (inactive) with HT-29; 21.6 µM (inactive) in the assay with LXFL 529; 35.6 µM (inactive) in the assay on K562; more than 100 µM with HCT-15; > 100 µM (inactive) in the assay with OVCAR-5. Besides, the GI50 in the assay with NCI-H23 was 56.4 µM (inactive); with 786-0, 38.7 µM (inactive); in the assay with SK-OV-3 it was > 100 µM (inactive); in the assay on EKVX, 44.8 µM (inactive); in the assay with COLO 205, 30.4 µM (inactive).

With `CN(C)CCC(=O)c1ccccc1`, the GI50 was 0.693 µM (active) in the assay on NCI-H522; > 39.1 µM (inactive) with DMS-114; > 58.7 µM (inactive) with NCI-H226; > 59.4 µM (inactive) in the assay on SNB-75; 32.5 µM (inactive) in the assay with KM12; 23.4 µM (inactive) in the assay with CCRF-CEM. The GI50 in the assay with MOLT-4 was 21.5 µM (inactive); with HT-29 it was > 47.8 µM (inactive); with LXFL 529, 26.3 µM (inactive); in the assay on K562 it was 27.6 µM (inactive); with HCT-15, 24.1 µM; with OVCAR-5, > 43.7 µM (inactive). The GI50 is > 61.8 µM (inactive) in the assay on NCI-H23; 20 µM (inactive) in the assay with 786-0; > 57.1 µM (inactive) in the assay with SK-OV-3; > 55.6 µM (inactive) in the assay with EKVX; 41 µM (inactive) in the assay with SK-MEL-28; 28.9 µM (inactive) in the assay with COLO 205.

The values are drawn from ChEMBL document CHEMBL1201862, “PubChem BioAssay data set” (2004).
